This note sets out measurements from patent US20230384334A1, “METHOD FOR CALCULATING DRINKING TIME” (Shanxi Medical University, priority 2022, published 2023).

Like-named read-outs stand apart in the source and are kept apart here.

The conditions of this data set: in vivo. On the procedure: Approved by the Medical Ethics Committee of Shanxi Medical University (2018LL349), a total of 26 adults including 14 men and 12 women are recruited by the team to participate in the study.
All the blood samples were stored at −20 DEG C. until the end of the analysis.
1 mL of blood and 1 mL of tert-butanol (IS, 87 mg/mL) were added to a headspace vial, diluted with 3 mL of ultrapure water, mixed in a sealed condition, and then analyzed by the headspace gas chromatography.
Metabolites EtG and EtS in blood samples were measured by liquid chromatography-tandem quadrupole mass spectrometry (LC-MS/MS) with EtG-D5 and EtS-D5 as internal standards. […] Then 800 μL of 80% acetonitrile in methanol was added, and the mixture is precipitated at 0 DEG C. for 10min. After that, centrifugation was performed at 13000 rpm for 5 min, supernatant was taken out, and dried, by blowing, with nitrogen at 35 DEG C., and then re-dissolved with 400 μL of 5% acetonitrile in water and centrifuged again at 13000 rpm for 5 min.
Chromatograph separation was performed via an LC-20 A system. Conditions of the chromatograph were as follows:
chromatographic column: Inertsil ODS-3 column (2.1 mm×100 mm, 3 μm; Shimadzu, Japan) , and column temperature: 35 DEG C.
Targeted substances were tested by a tandom mass spectrometer (TRAP4,000, Sciex, AB). The specific conditions were as follows:
Ion source: electron spray ionization (ESI); voltage of ion spray: −4000 V, and temperature: 500 DEG C.; curtain gas, nebulizer (Gas 1), and heating auxiliary gas (Gas 2): 40 psi, 50 psi, and 35 psi respectively.
Scanning mode: anions+multiple reaction monitoring (MRM).
The pharmacokinetic parameters were calculated by a non-compartmental model using a DAS 3.0 software. All data was summarized using descriptive statistics. […] All statistical analyses were performed using version 13.0 of an IBM SPSS® software (SPSS Inc., Chicago, IL, USA).

On to `CCOS(=O)(=O)O` [EtS, Ethyl sulphate], for which the “Cmax, peak concentration” value (human, 0.72 g/kg) stood at 170 ng/mL. Also, for the setting “human, po”, the AUC (0-t), area under the curve amounted to 1040 ± 340 ng·h/mL; the “Cmax, peak concentration” value worked out at 170 ± 40 ng/mL; the “t1/2z, half-life period” value was found to be 2.04 ± 0.76 h. Also, the “LOD (h) in human blood” value (po) amounted to 16.92 ± 6.23 h.
Take `CCO[C@@H]1O[C@H](C(=O)O)[C@@H](O)[C@H](O)[C@H]1O` [EtG, Ethyl glucuronide]: under “human, po”, the AUC (0-t), area under the curve is 1990 ± 780 ng·h/mL; the “Cmax, peak concentration” value amounted to 310 ± 110 ng/mL; the “Tmax, time to peak” value was determined as 4.12 ± 1.07 h; the “t1/2z, half-life period” value came out at 2.56 ± 0.89 h. Further, the “LOD (h) in human blood” value (po) stood at 22.15 ± 4.42 h.
For the compound `CCO` [alcohol, Alcohol], for the setting “human, po”, the “AUC (0-t), area under the curve” value is on record as 1,715.23 ± 626.72 mg/L*; the “Clz/F, clearance rate” value worked out at 0.49 ± 0.33 L/h; the “Tmax, time to peak” value was 2.02 ± 0.54 h; the “Vz/F, apparent volume of distribution” value is listed as 0.69 ± 0.49 L/kg. Moreover, for the setting “po”, the “Detection window time (maximum observed value) in blood” value is 3 to 8 h and the “LOD (h) in human blood” value is 5.81 ± 1.74 h.
